{"source": "patent US20230181614A1", "about": "“ADMINISTRATION OF CITICOLINE TO IMPROVE COGNITIVE PERFORMANCE, ATTENTIONAL PERFORMANCE, AND MOTOR FUNCTION” (KYOWA HAKKO BIO CO., LTD., priority 2014, published 2023)", "tested_on": "Healthy subjects, ages 13-18", "assay": "Ruff 2 & 7 test (visual attention)", "format": "in vivo, human", "conditions": "for Ruff 2 & 7 Accuracy Difference Score V1 (Mean) / Ruff 2 & 7 Speed Difference Score V1 (Mean) / Ruff 2 & 7 Total Accuracy T Score V1 (Mean) / Ruff 2 & 7 Total Difference Score V1 (Mean) / Ruff 2 & 7 Total Speed T Score V1 (Mean): Visit 1; for Ruff 2 & 7 Accuracy Difference Score V3 (Mean) / Ruff 2 & 7 Speed Difference Score V3 (Mean) / Ruff 2 & 7 Total Accuracy T Score V3 (Mean) / Ruff 2 & 7 Total Difference Score V3 (Mean) / Ruff 2 & 7 Total Speed T Score V3 (Mean): Visit 3", "source_text": "Study participants were screened by telephone prior to study enrollment. Healthy subjects, ages 13-18, with no significant medical conditions and no history of co-morbid psychiatric disorder, current Axis I or II diagnosis, or previous participation in a pharmacotherapeutic trial, were selected. Use of any psychotropic medication or any previous head injury resulting in loss of consciousness for 5 or more minutes were used as exclusion criteria. While no participant met criteria for a neuropsychiatric disorder at enrollment, clinical assessments were still completed throughout the study to evaluate changes in mood state. In addition, self-reports of sleep habits, lifestyle, and exercise routines were also administered at baseline as well as at each study visit to assess changes in health habits during study participation. Following the completion of Visit 1 assessment, participants were given their 28-day supply of citicoline (250 mg or 500 mg) or placebo, which was randomly assigned. They were instructed to take one capsule a day every day for the next 28 days. Visit 2 occurred fourteen days after Visit 1. At Visit 2, the remaining study pills were counted and participant dosage calendars were checked to ensure compliance with the protocol. Additional neuropsychological measures and clinical assessments were administered during this visit. Participants returned for Visit 3 fourteen days later, on the 28th day of their study participation. The pill bottle and the dosage calendar were collected from each participant. Urine and blood were again obtained. Participants also participated in similar clinical and neuropsychological testing and clinical measures that were given during visit 1. The Ruff 2 & 7 measures two aspects of visual attention: sustained attention and selective attention. There are a series of 20 trials involving visual searching in which the respondent detects and marks through all given stimuli the digits “2” and “7”. In the 10 Automatic Detection trials, the target digits are embedded among alphabetical letters that serve as distractors. In the 10 Controlled Search trials, the target digits are embedded among other numbers that serve as distractors. Correct hits and errors are counted for each trial and serve as the basis for scoring the test. Accuracy scores evaluate the number of targets identified in relation to the number of possible targets. The Ruff 2 & 7 was administered at all three visits.", "key": {"[1]": {"conditions": "250 mg/day group, visit difference score V3-V1"}, "[2]": {"conditions": "500 mg/day group, visit difference score V3-V1"}}}
{"smiles": "C[N+](C)(C)CCOP(=O)(O)OP(=O)([O-])OC[C@H]1O[C@@H](n2ccc(N)nc2=O)[C@H](O)[C@@H]1O", "note": "[citicoline, Cytidine 5′-diphosphocholine]", "values": [{"measurement": "Ruff 2 & 7 Accuracy Difference Score V1 (Mean)", "setting": "250 mg/day group", "result": 0.02}, {"measurement": "Ruff 2 & 7 Speed Difference Score V1 (Mean)", "setting": "250 mg/day group", "result": 0.01}, {"measurement": "Ruff 2 & 7 Total Accuracy T Score V1 (Mean)", "setting": "250 mg/day group", "result": 47.41}, {"measurement": "Ruff 2 & 7 Total Difference Score V1 (Mean)", "setting": "250 mg/day group", "result": 0.01}, {"measurement": "Ruff 2 & 7 Total Speed T Score V1 (Mean)", "setting": "250 mg/day group", "result": 45.74}, {"measurement": "Ruff 2 & 7 Accuracy Difference Score V3 (Mean)", "setting": "250 mg/day group", "result": 0.01}, {"measurement": "Ruff 2 & 7 Speed Difference Score V3 (Mean)", "setting": "250 mg/day group", "result": 0.01}, {"measurement": "Ruff 2 & 7 Total Accuracy T Score V3 (Mean)", "setting": "250 mg/day group", "result": 53.00}, {"measurement": "Ruff 2 & 7 Total Difference Score V3 (Mean)", "setting": "250 mg/day group", "result": 0.02}, {"measurement": "Ruff 2 & 7 Total Speed T Score V3 (Mean)", "setting": "250 mg/day group", "result": 54.85}, {"measurement": "Ruff 2 & 7 Speed Difference Score V3-V1 (Mean)", "setting": "[1]", "result": 0.00}, {"measurement": "Ruff 2 & 7 Total Accuracy T Score V3-V1 (Mean)", "setting": "[1]", "result": 5.59}, {"measurement": "Ruff 2 & 7 Total Difference Score V3-V1 (Mean)", "setting": "[1]", "result": 0.00}, {"measurement": "Ruff 2 & 7 Total Speed T Score V3-V1 (Mean)", "setting": "[1]", "result": 9.11}, {"measurement": "Ruff 2 & 7 Accuracy Difference Score V1 (Mean)", "setting": "500 mg/day group", "result": 0.02}, {"measurement": "Ruff 2 & 7 Speed Difference Score V1 (Mean)", "setting": "500 mg/day group", "result": 0.01}, {"measurement": "Ruff 2 & 7 Total Accuracy T Score V1 (Mean)", "setting": "500 mg/day group", "result": 42.71}, {"measurement": "Ruff 2 & 7 Total Difference Score V1 (Mean)", "setting": "500 mg/day group", "result": 0.02}, {"measurement": "Ruff 2 & 7 Total Speed T Score V1 (Mean)", "setting": "500 mg/day group", "result": 44.33}, {"measurement": "Ruff 2 & 7 Accuracy Difference Score V3 (Mean)", "setting": "500 mg/day group", "result": 0.00}, {"measurement": "Ruff 2 & 7 Speed Difference Score V3 (Mean)", "setting": "500 mg/day group", "result": 0.02}, {"measurement": "Ruff 2 & 7 Total Accuracy T Score V3 (Mean)", "setting": "500 mg/day group", "result": 49.88}, {"measurement": "Ruff 2 & 7 Total Difference Score V3 (Mean)", "setting": "500 mg/day group", "result": 0.02}, {"measurement": "Ruff 2 & 7 Total Speed T Score V3 (Mean)", "setting": "500 mg/day group", "result": 53.75}, {"measurement": "Ruff 2 & 7 Accuracy Difference Score V3-V1 (Mean)", "setting": "[2]", "result": -0.02}, {"measurement": "Ruff 2 & 7 Speed Difference Score V3-V1 (Mean)", "setting": "[2]", "result": 0.01}, {"measurement": "Ruff 2 & 7 Total Accuracy T Score V3-V1 (Mean)", "setting": "[2]", "result": 7.17}, {"measurement": "Ruff 2 & 7 Total Difference Score V3-V1 (Mean)", "setting": "[2]", "result": 0.01}, {"measurement": "Ruff 2 & 7 Total Speed T Score V3-V1 (Mean)", "setting": "[2]", "result": 9.42}]}
